From the supplement of paper PMC8671470

Assays:
Conditions in all cases: 72 h
HL-60 [1] = assay: cell viability (% survival relative to DMSO control, bortezomib = 0%); higher = less cytotoxic
Method in brief: (§1)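 Fifteen myeloid leukaemia cell lines were exposed to compounds at 1, 10, 100, 1000 or 10000 nM in 384-well plates for 72 h at 37 °C and 5% CO2. Viability was read by CellTiter-Glo luminescence and normalised, with vehicle as 100% and a 10 µM positive control as 0%. Values are percent survival averaged over duplicates.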

KG-1 = assay: as above
Method in brief: as §1

KU-812 = assay: as above
Method in brief: as §1

HL-60 [2] = assay: area under dose-response curve (viability, 1 nM-10 uM) (fraction (0-1)); higher = more sensitive
Method in brief: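 HL-60 cells grown in RPMI 1640 with 10% FBS were rescreened against the full library in 384-well plates, in duplicate, at five tenfold concentrations from 1 to 10,000 nM, alongside DMSO or 100 nM of one of three metabolic inhibitors for 72 h at 37 °C, 5% CO2. Reference wells contained DMSO or 10 μM proteasome inhibitor. Viability was read with CellTiter-Glo and normalised to these reference wells, and where reported, area under the curve was taken from four-parameter log-logistic fits in drc and PharmacoGx.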

[3] = tested on: myeloid leukemia patient primary cells Pat.14; assay: area under dose-response curve (viability, 1 nM-10 uM) (fraction (0-1)); higher = more sensitive
Procedure: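 AUC (0–1, higher = more sensitive) of the 5-point dose–response (1 nM–10 µM, 72 h, CellTiter-Glo) in primary AML/CML patient mononuclear cells. 0.030103 is the floor for inactive compounds.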

[4] = co-treatment: GSK2194069 100 nM
[5] = co-treatment: pictilisib 100 nM

Row | Structure (SMILES) | cell viability (HL-60 [1]; 1 nM) [%] | cell viability (HL-60 [1]; 10 nM) [%] | cell viability (HL-60 [1]; 100 nM) [%] | cell viability (HL-60 [1]; 1000 nM) [%] | cell viability (HL-60 [1]; 10000 nM) [%] | cell viability (KG-1; 1 nM) [%] | cell viability (KG-1; 10 nM) [%] | cell viability (KG-1; 100 nM) [%] | cell viability (KG-1; 1000 nM) [%] | cell viability (KG-1; 10000 nM) [%] | cell viability (KU-812; 1 nM) [%] | cell viability (KU-812; 10 nM) [%] | cell viability (KU-812; 100 nM) [%] | cell viability (KU-812; 1000 nM) [%] | cell viability (KU-812; 10000 nM) [%] | area under dose-response curve (HL-60 [2]; co-treatment: AZD3965 100 nM) | area under dose-response curve (HL-60 [2]; co-treatment: DMSO vehicle) | area under dose-response curve (HL-60 [2]; [4]) | area under dose-response curve (HL-60 [2]; [5]) | area under dose-response curve [3]
1 | Sc1ncnc2nc[nH]c12 [6-mercaptopurine] | 144 | 85.8 | 118 | 54.7 | 15.2 | 112 | 103 | 93.4 | 97.9 | 89.4 | 98.9 | 100 | 93 | 59.3 | 54.4 | 0.0762 | 0.0564 | 0.0946 | 0.0609 | < 0.0301
2 | Nc1ccn([C@@H]2O[C@H](CO)[C@@H](O)[C@@H]2O)c(=O)n1 [Cytarabine] | 100 | 95.1 | 82.3 | 28 | 0.475 | 108 | 108 | 63.5 | 21.8 | 11.3 | 97 | 81.8 | 24.6 | 7.19 | 5.66 | 0.242 | 0.214 | 0.216 | 0.329 | 0.152
3 | CCN(CC)CCN(Cc1ccc(-c2ccc(C(F)(F)F)cc2)cc1)C(=O)Cn1c(SCc2ccc(F)cc2)nc(=O)c2c1CCC2 [Darapladib] | 101 | 95.7 | 101 | 81.9 | -0.402 | 104 | 108 | 93.6 | 87.8 | 0.0114 | 110 | 93.6 | 100 | 80.7 | -0.56 | 0.144 | 0.14 | 0.167 | 0.134 | 0.241
4 | CC12CCC(O)CC1CCC1C2CCC2(C)C(C3=CC(=O)OC3)CCC12O (configuration not stated) [Digitoxigenin] | 101 | 105 | 103 | 1.05 | -1.85 | 128 | 113 | 87.5 | 6.15 | -1.05 | 105 | 97.4 | 101 | 7.21 | 3.46 | 0.372 | 0.376 | 0.386 | 0.374 | 0.305
5 | C[C@H]1O[C@@H](O[C@H]2[C@@H](O)C[C@H](O[C@H]3[C@@H](O)C[C@H](O[C@H]4CC[C@@]5(C)[C@H](CC[C@@H]6[C@@H]5C[C@@H](O)[C@]5(C)[C@@H](C7=CC(=O)OC7)CC[C@]65O)C4)O[C@@H]3C)O[C@@H]2C)C[C@H](O)[C@@H]1O [Digoxin] | 104 | 107 | -0.615 | -0.309 | -0.00704 | 92 | 108 | 27.9 | 0.685 | -0.0339 | 92.2 | 113 | 30.5 | 4.45 | 4.24 | 0.459 | 0.479 | 0.423 | 0.486 | 0.363
6 | Clc1ccc(COC(Cn2ccnc2)c2ccc(Cl)cc2Cl)cc1 (configuration not stated) [Econazole] | 120 | 80.3 | 109 | 81.2 | 41.5 | 97.4 | 95.3 | 101 | 86 | 52.2 | 113 | 101 | 87.2 | 89.5 | 41.9 | – | – | – | – | 0.138
7 | c1ccc2c(c1)OCC(=C1NCCN1)O2 [Idazoxan] | 89.1 | 80.3 | 80 | 97.2 | 75.9 | 104 | 112 | 93.6 | 96.4 | 85.9 | 105 | 108 | 96.5 | 91.8 | 105 | < 0.0301 | < 0.0301 | < 0.0301 | < 0.0301 | –
8 | C[C@]12O[C@H](C[C@]1(O)CO)n1c3ccccc3c3c4c(c5c6ccccc6n2c5c31)CNC4=O [Lestaurtinib] | 91.8 | 77.6 | 44.5 | 17.5 | 0.00654 | 98.3 | 69.3 | 28 | 10.3 | 6.14 | 96 | 89.8 | 39.4 | 43.1 | 6 | 0.381 | 0.293 | 0.335 | 0.452 | 0.261
9 | O=C(O)c1nn(Cc2ccc(Cl)cc2Cl)c2ccccc12 [Lonidamine] | 100 | 119 | 90.2 | 82.2 | 105 | 97.8 | 103 | 103 | 84.7 | 71.9 | 103 | 97 | 112 | 97 | 88.8 | < 0.0301 | < 0.0301 | < 0.0301 | < 0.0301 | –
10 | C1CCc2nnc(C34CC5CC(CC(C5)C3)C4)n2CC1 [MERCK-544] | 94.7 | 154 | 103 | 74.8 | 129 | 101 | 106 | 98.5 | 95.2 | 105 | 97.6 | 95 | 86.9 | 78.7 | 97.9 | < 0.0301 | < 0.0301 | < 0.0301 | < 0.0301 | –
11 | CC(Cc1ccc(O)c(O)c1)C(C)Cc1ccc(O)c(O)c1 (configuration not stated) [Masoprocol] | 89 | 81.2 | 118 | 90 | 6.31 | 99 | 109 | 108 | 94.8 | 48.2 | 102 | 94.3 | 102 | 102 | 59.4 | 0.12 | 0.104 | 0.0826 | 0.142 | –
